Patent publication US9682980B2, “Positive allosteric modulators of mGluR2” (BRISTOL-MYERS SQUIBB COMPANY, priority 2012, dated 2017)

Biological target: human mGluR2 (Homo sapiens (Human), UniProt Q14416)
Test: MGluR2 cAMP assay
Type: cell-based
Conditions: HEK293 cells clonally expressing human mGluR2, 1 μM forskolin, 1 μM LY-341495
Description: Clonally expressed human mGluR2 in HEK293 background was glutamate starved overnight in media without glutamine (GIBCO MEM 12360), containing 10% FBS, 1% penicillin streptomycin.
On the day of the assay, media was removed, cells washed with PBS, cells harvested and pelleted by centrifugation. Cell pellets were resuspended in stimulation buffer without forskolin and counted. A solution of 1.25×10^6 cells/ml was prepared and dispensed to plates using a Combi liquid handler (Thermo). A standard curve was created using a top concentration of cAMP of 1 μM in the stimulation buffer, 1:3 dilutions over 14 points in the absence of cells. Plates were read by time-resolved fluorescence at […] and a ratio was calculated via in house software, (665 nM/618 nM)*10^4. In house software converted the fluorescence value ratios to units of cAMP concentration, which is then used to calculate % inhibition for each test compound.
Compounds were added to white, standard volume 384 non-binding surface plates (Corning 3574). Cells were resuspended in stimulation buffer consisting of Hanks Balanced Salt Solution (14175-095) pH 7.0, 20 mM HEPES, 2.0 mM CaCl2, 5.0 mM MgCl2, and 1 mM IBMX (Sigma 15879), 1 μM forskolin, and 1 μM LY-341495, for 30 minutes. Buffer without forskolin was used as a negative control. Solutions of D2 and cryptate detection reagents from the CISBIO dynamic cAMP kit (62AM4PEJ) were diluted 1:40 in lysis buffer. Lysis buffer consisted of 50 mM Phosphate Buffer pH 7.0, 800 mM Potassium Fluoride, 0.2% BSA, and 1.0% Triton. Assay reaction was terminated by addition of detection reagents in lysis buffer. One hour later, plates were read on a PE Viewlux. Data was extracted, and concentration response curves generated by fitting the data to a standard 4 parameter logistic equation from which EC50 values were determined See table 1: A: <10 nM; B: 10-100 nM; C: 100-1000 nM; D: 1000-10000 nM.

Chain of human mGluR2 (Q14416 19-872): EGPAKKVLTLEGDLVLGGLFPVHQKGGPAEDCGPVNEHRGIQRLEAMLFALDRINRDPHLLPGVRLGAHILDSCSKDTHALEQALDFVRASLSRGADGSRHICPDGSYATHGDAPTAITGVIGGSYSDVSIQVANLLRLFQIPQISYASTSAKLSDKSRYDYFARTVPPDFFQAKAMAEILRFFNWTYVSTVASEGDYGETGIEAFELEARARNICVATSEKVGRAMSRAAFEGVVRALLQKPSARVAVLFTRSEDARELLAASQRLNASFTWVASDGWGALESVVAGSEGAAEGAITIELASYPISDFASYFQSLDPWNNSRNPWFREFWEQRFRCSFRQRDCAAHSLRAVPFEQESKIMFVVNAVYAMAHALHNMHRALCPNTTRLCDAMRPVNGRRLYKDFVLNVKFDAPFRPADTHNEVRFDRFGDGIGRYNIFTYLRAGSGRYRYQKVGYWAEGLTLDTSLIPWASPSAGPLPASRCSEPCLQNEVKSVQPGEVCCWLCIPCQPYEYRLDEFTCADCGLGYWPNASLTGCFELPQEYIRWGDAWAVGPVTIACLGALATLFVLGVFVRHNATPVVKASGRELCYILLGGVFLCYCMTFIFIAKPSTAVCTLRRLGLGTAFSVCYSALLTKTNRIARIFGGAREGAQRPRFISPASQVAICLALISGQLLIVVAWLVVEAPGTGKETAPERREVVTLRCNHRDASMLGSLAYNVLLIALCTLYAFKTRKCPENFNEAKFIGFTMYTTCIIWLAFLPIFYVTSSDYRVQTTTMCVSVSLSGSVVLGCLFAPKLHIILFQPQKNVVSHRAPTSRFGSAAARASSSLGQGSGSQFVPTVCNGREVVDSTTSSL

Row | Compound | EC50 [nM]
1 | CCN(CC1CC1c1ccc(F)cc1)c1cnn2c(CC3CC3)nnc2c1Cl (stereo not drawn) [Example 49, 8-Chloro-3-(cyclopropylmethyl)-N-ethyl-N-((2-(4-fluorophenyl)cyclopropyl)methyl)-[1,2,4]triazolo[4,3-b]pyridazin-7-amine] | 425
2 | Fc1ccc([C@@H]2C[C@H]2CNc2cnn3c(CC4CC4)nnc3c2Cl)cc1 [Example 10, 8-Chloro-3-(cyclopropylmethyl)-N-(((1R,2R)-2-(4-fluorophenyl)cyclopropyl)methyl)-[1,2,4]triazolo[4,3-b]pyridazin-7-amine] | 158
3 | Fc1ccc(C2CCN(c3cnn4c(CC5CC5)nnc4c3Cl)CC2)cc1 [Example 17, 8-Chloro-3-(cyclopropylmethyl)-7-(4-(4-fluorophenyl)piperidin-1-yl)-[1,2,4]triazolo[4,3-b]pyridazine] | 46
4 | Cc1c(N2CCC(c3ccccc3)CC2)cnn2c(CC3CC3)nnc12 [Example 6, 3-(Cyclopropylmethyl)-8-methyl-7-(4-phenylpiperidin-1-yl)-[1,2,4]triazolo[4,3-b]pyridazine] | 182
5 | COc1ccccc1C1CCN(c2cnn3c(CC4CC4)nnc3c2Cl)CC1 [Example 27, 8-Chloro-3-(cyclopropylmethyl)-7-(4-(2-methoxyphenyl)piperidin-1-yl)-[1,2,4]triazolo[4,3-b]pyridazine] | 9
6 | Fc1ccccc1C1CCN(c2cnn3c(CC4CC4)nnc3c2Cl)CC1 [Example 23, 8-Chloro-3-(cyclopropylmethyl)-7-(4-(2-fluorophenyl)piperidin-1-yl)-[1,2,4]triazolo[4,3-b]pyridazine] | 13
7 | COc1ccc(OC)c(C2CCN(c3cnn4c(CC(F)(F)F)nnc4c3Cl)CC2)c1 [Example 36, 8-Chloro-7-(4-(2,5-dimethoxyphenyl)piperidin-1-yl)-3-(2,2,2-trifluoroethyl)-[1,2,4]triazolo[4,3-b]pyridazine] | 7
8 | Fc1cc(F)c(OC(F)F)c(C2CCN(c3cnn4c(CC5CC5)nnc4c3Cl)CC2)c1 [Example 54, 8-Chloro-3-(cyclopropylmethyl)-7-(4-(2-(difluoromethoxy)-3,5-difluorophenyl)piperidin-1-yl)-[1,2,4]triazolo[4,3-b]pyridazine] | 10
9 | Fc1cc(F)c(OC(F)F)c(C2CCN(c3cnn4c(CC(F)(F)F)nnc4c3Cl)CC2)c1 [Example 55, 8-Chloro-7-(4-(2-(difluoromethoxy)-3,5-difluorophenyl)piperidin-1-yl)-3-(2,2,2-trifluoroethyl)-[1,2,4]triazolo[4,3-b]pyridazine] | 21
10 | COc1c(N2CCC(c3ccccc3)CC2)ncn2c(CC3CC3)nnc12 [Example 3, 3-(Cyclopropylmethyl)-8-methoxy-7-(4-phenylpiperidin-1-yl)-[1,2,4]triazolo[4,3-c]pyrimidine] | 540
11 | Fc1ccccc1C1CCN(c2ncn3c(CC(F)(F)F)nnc3c2Cl)CC1 [Example 67, 8-Chloro-7-(4-(2-fluorophenyl)piperidin-1-yl)-3-(2,2,2-trifluoroethyl)-[1,2,4]triazolo[4,3-c]pyrimidine] | 5
12 | CC(C)Cc1nnc2c(Cl)c(N3CCC(c4ccccc4)CC3)cnn12 [Example 58, 8-Chloro-3-isobutyl-7-(4-phenylpiperidin-1-yl)-[1,2,4]triazolo[4,3-b]pyridazine] | 201

Results, then the molecule that gave them:

Row | EC50 [nM] | Compound
13 | 225 | Clc1c(NC2CCC(c3ccccc3)CC2)cnn2c(CC3CC3)nnc12 (stereo not drawn) [Example 61, 8-Chloro-3-(cyclopropylmethyl)-N-(4-phenylcyclohexyl)-[1,2,4]triazolo[4,3-b]pyridazin-7-amine]
14 | 733 | FC(F)(F)Cc1nnc2c(Cl)c(NC3CCC(c4ccccc4)CC3)cnn12 (stereo not drawn) [Example 64, 8-Chloro-N-(4-phenylcyclohexyl)-3-(2,2,2-trifluoroethyl)-[1,2,4]triazolo[4,3-b]pyridazin-7-amine]
15 | 286 | COc1c(N2CCC(c3ccc(F)cc3)CC2)ncn2c(CC(C)(C)C)nnc12 [Example 13, 7-(4-(4-Fluorophenyl)piperidin-1-yl)-8-methoxy-3-neopentyl-[1,2,4]triazolo[4,3-c]pyrimidine]
16 | 263 | FC(F)(F)Cc1nnc2c(Cl)c(N3CCC(c4cc(Cl)cc(Cl)c4)CC3)cnn12 [Example 48, 8-Chloro-7-(4-(3,5-dichlorophenyl)piperidin-1-yl)-3-(2,2,2-trifluoroethyl)-[1,2,4]triazolo[4,3-b]pyridazine]
17 | 62 | Cc1c(N2CCC(c3ccccc3)CC2)ncn2c(CC3CC3)nnc12 [Example 2, 3-(Cyclopropylmethyl)-8-methyl-7-(4-phenylpiperidin-1-yl)-[1,2,4]triazolo[4,3-c]pyrimidine]
18 | 47 | O=C1Oc2ccccc2C12CCN(c1cnn3c(CC4CC4)nnc3c1Cl)CC2 [Example 62, 1′-(8-Chloro-3-(cyclopropylmethyl)-[1,2,4]triazolo[4,3-b]pyridazin-7-yl)-2H-spiro[benzofuran-3,4′-piperidin]-2-one]
19 | 649 | COc1cccc(F)c1C1CCN(c2cc3nnc(CC4CC4)n3cn2)CC1 [Example 34, 3-(Cyclopropylmethyl)-7-(4-(2-fluoro-6-methoxyphenyl)piperidin-1-yl)-[1,2,4]triazolo[4,3-c]pyrimidine]
20 | 14 | Fc1ccc(C2CCN(c3cnn4c(CC5CC5)nnc4c3Cl)CC2)c(F)c1 [Example 74, 8-Chloro-3-(cyclopropylmethyl)-7-(4-(2,4-difluorophenyl)piperidin-1-yl)-[1,2,4]triazolo[4,3-b]pyridazine]
21 | 275 | Clc1c(N2CCC(c3ccncc3)CC2)cnn2c(CC3CC3)nnc12 [Example 41, 8-Chloro-3-(cyclopropylmethyl)-7-(4-(pyridin-4-yl)piperidin-1-yl)-[1,2,4]triazolo[4,3-b]pyridazine]
22 | 76 | Fc1ccc([C@@H]2C[C@H]2CNc2cnn3c(CC4CC4)nnc3c2Cl)cc1 (racemic) [Example 9, Trans-8-chloro-3-(cyclopropylmethyl)-N-((2-(4-fluorophenyl)cyclopropyl)methyl)-[1,2,4]triazolo[4,3-b]pyridazin-7-amine]
23 | 9 | COc1ccc(C2CCN(c3cnn4c(CC5CC5)nnc4c3Cl)CC2)c(OC)c1 [Example 37, 8-Chloro-3-(cyclopropylmethyl)-7-(4-(2,4-dimethoxyphenyl)piperidin-1-yl)-[1,2,4]triazolo[4,3-b]pyridazine]
24 | 16 | Fc1ccc(C2CCN(c3cnn4c(CC(F)(F)F)nnc4c3Cl)CC2)c(F)c1 [Example 75, 8-Chloro-7-(4-(2,4-difluorophenyl)piperidin-1-yl)-3-(2,2,2-trifluoroethyl)-[1,2,4]triazolo[4,3-b]pyridazine]
25 | 21 | Cc1ccccc1C1CCN(c2cnn3c(CC4CC4)nnc3c2Cl)CC1 [Example 29, 8-Chloro-3-(cyclopropylmethyl)-7-(4-(o-tolyl)piperidin-1-yl)-[1,2,4]triazolo[4,3-b]pyridazine]
26 | 11 | COc1cc(OC)nc(C2CCN(c3cnn4c(CC5CC5)nnc4c3Cl)CC2)n1 [Example 42, 8-Chloro-3-(cyclopropylmethyl)-7-(4-(4,6-dimethoxypyrimidin-2-yl)piperidin-1-yl)-[1,2,4]triazolo[4,3-b]pyridazine]
27 | 25 | Fc1cccc(C2CCN(c3cnn4c(CC5CC5)nnc4c3Cl)CC2)c1 [Example 24, 8-Chloro-3-(cyclopropylmethyl)-7-(4-(3-fluorophenyl)piperidin-1-yl)-[1,2,4]triazolo[4,3-b]pyridazine]
